Data: patent US20260324636A1, “COMPOSITION FOR PROVIDING PLANT WITH STRESS RESISTANCE” (KIRIN HOLDINGS KABUSHIKI KAISHA, priority 2022, published 2026)

Assays:
[1] = system: ZAT10; experiment: Histone H4 acetylation level of ZAT10 by chromatin immunoprecipitation and quantitative PCR, Example 14; assay type: in vivo, Arabidopsis thaliana (Col-0); conditions: Arabidopsis thaliana; 0.4 mM in medium, 2 hours after application; read-out: histone H4 acetylation level of ZAT10, increase vs group not subjected to the treatment
Method: A wild-type Arabidopsis thaliana strain (accession: Col-0) was used as an experimental material. Seeds were purchased from Inplanta Innovations Inc.
(§1) A liquid medium containing a ½ Murashige and Skoog Plant Salt Mixture (Nacalai) and 1 (w/v) % sucrose (FUJIFILM Wako) was used as a growth medium.
Arabidopsis thaliana seeds were sterilized with the use of a Kitchen Haiter® liquid (Kao Corporation) diluted to one-half concentration with distilled water for 3 minutes, washed 3 times with sterile distilled water, and then incubated at 4° C. overnight. The growth medium (100 ml) was prepared in a 300-ml flask, the incubated seeds were seeded therein, the flask was transferred to an incubator (TOMY), and shake culture was then initiated. The incubator was maintained at a temperature of 22° C. for a daily cycle of 16 hours light and 8 hours darkness, and the rotation speed of the shaker was set at 180 rpm.
A stock solution of N-acetylglutamic acid (Tokyo Chemical Industry Co., Ltd.) was added to Arabidopsis thaliana 7 days after seeding to the final concentration of 0 mM and 0.4 mM in the media, followed by incubation for 2 hours. Sample fixation following incubation was performed in accordance with Yamaguchi et al (Arabidopsis Book, Feb. 17, 2014; 12: e0170). […]

[2] = system: HAC12; experiment: HAC12 gene expression by real-time PCR, Example 15; assay type: in vivo; conditions: Arabidopsis thaliana; 0.1 mM in medium, 2 hours after application, 22° C.; read-out: HAC12 expression level, increase vs group not subjected to the treatment
Method: The materials as used in Example 14 were used.
as §1
Arabidopsis thaliana seeds were sterilized with the use of a Kitchen Haiter® liquid (Kao Corporation) diluted to one-half concentration with distilled water for 3 minutes, washed 3 times with sterile distilled water, and then incubated at 4° C. overnight. The growth medium was dispensed at 1 ml/well on a 12-well microplate (IWAKI), 5 grains of the seeds were inoculated in each well, and the plate was transferred to the incubator (TOMY) to initiate growing. The incubator was maintained at a temperature of 22° C. for a daily cycle of 16 hours light and 8 hours darkness.
N-acetylglutamic acid was applied to Arabidopsis thaliana 7 days after inoculation to the final concentration of 0.1 mM in the medium, followed by incubation for 2 hours or 6 hours. The incubator was maintained at a temperature of 22° C. for a daily cycle of 16 hours light and 8 hours darkness. After incubation, the samples were frozen with liquid nitrogen, and RNA was extracted using the RNeasy Plant Mini Kit […]. […]
Thereafter, the relative expression levels of the target genes upon N-acetylglutamic acid treatment were calculated by the ΔΔCt method using the Cp values obtained by real-time PCR.

SMILES: CC(=O)N[C@@H](CCC(=O)O)C(=O)O [N-acetylglutamic acid]
- fold induction at 400 µM [1]: 1.9
- fold induction at 100 µM [2]: 1.3
